Here are results for 54 compounds from patent EP4711356A1, “TETRAHYDROCARBAZOLE DERIVATIVE, PHARMACEUTICAL COMPOSITION, AND USE THEREOF” (Nain Biotech (Hangzhou) Co., Ltd., priority 2023, dated 2024).

Structures are written as SMILES.

The subject of this experiment is HeLa cells. As to the kind of experiment: Cell-based pharmacodynamic assay (CellTiter-Glo proliferation inhibition), HeLa. The following applies: human cervical cancer HeLa cells; 72 hours incubation; CellTiter-Glo luminescence; read-out: IC50 against HeLa cells. Here is the method: Complete media such as RPMI 1640 (Gibco, A1049101), EMEM (ATCC, 30-2003), DMEM (Gibco, C11995500CP), McCoy's 5A (Gibco, 16600082), and F-12K (ATCC, 30-2004) were prepared by supplementing with varying concentrations of FBS (Biological Industries, 04-002-1A) and 1% Penicillin-Streptomycin (Gibco, 15140122) and was thoroughly mixed. Tumor cell lines including HeLa (ATCC, CCL-2; EMEM + 10% FBS), TOV-21G (Cobioer, CBP60292; 1:1 mixture of MCDB 105 and Medium 199 + 15% FBS), OVCAR-3 (ATCC, HTB-161; RPMI 1640 + 20% FBS + 0.01 mg/ml bovine insulin), SK-OV-3 (ATCC, HTB-77; McCoy's 5A + 10% FBS), A2780 (Cobioer, CBP60283; RPMI 1640 + 10% FBS), OC316 (Cobioer, CBP60620; RPMI 1640 + 10% FBS), HuH-7 (Cobioer, CBP60202; DMEM + 10% FBS), SNU-398 (ATCC, CRL-2233; RPMI 1640 + 10% FBS), NCI-H2286 (ATCC, CRL-5938; RPMI 1640 + 5% FBS), NCI-H82 (ATCC, HTB-175; RPMI 1640 + 10% FBS), A549 (ATCC, CCL-185; F-12K + 10% FBS), SK-MEL-3 (ATCC, HTB-69; McCoy's 5A + 15% FBS), PSN-1 (Cobioer, CBP61215; RPMI 1640 + 10% FBS), LoVo (ATCC, CCL-229; F-12K + 10% FBS), DLD-1 (ATCC, CCL-221; RPMI 1640 + 10% FBS), HCT-15 (ATCC, CCL-225; RPMI 1640 + 10% FBS), A498 (ATCC, HTB-44; EMEM + 10% FBS), LNCaP (ATCC, CRL-1740; RPMI 1640 + 10% FBS), SNU-1 (ATCC, CRL-5971; RPMI 1640 + 10% FBS), SCC-9 (Cobioer, CBP60428; DMEM/F12 (1:1) + 10% FBS + 0.5 mM sodium pyruvate + 400 ng/ml hydrocortisone), SU-DHL-5 (ATCC, CRL-2958; RPMI 1640 + 10% FBS), Toledo (ATCC, CRL-2631; RPMI 1640 + 10% FBS), and SJCRH30 (ATCC, CRL-2061; RPMI 1640 + 10% FBS) were thawed. Cells were passaged approximately twice, and those in good growth condition (typically passages 4-6) were selected for experiments. The medium was aspirated, and the cells were washed once with 0.25% trypsin (Invitrogen, 25200-072). The waste liquid was discarded, and 3 mL of fresh trypsin was added to the culture flask for digestion. When the cells began to detach, 9 mL of complete medium was added to neutralize the trypsin digestion, and the mixture was gently mixed. The cell suspension was transferred to a centrifuge tube using a pipette and centrifuged at 1000 rpm for 5 minutes. The supernatant was discarded, and 5 mL of medium was added to the centrifuge tube to gently resuspend the cells evenly. The cell concentration was adjusted to 1×10^4/mL-3×10^4/mL using a cell counter (Beckman Coulter, Vi-cellTM XR). The cell suspension was added to a 96-well plate (Corning, 3903) at 100 µL/well. The plate was labeled with details such as cell name, seeding density, and date, and then placed in a CO2 incubator (Thermo, Thermo 3111) overnight. Test compounds were prepared as 20 mM stock solutions in DMSO (Sigma, D4540-1L) and added to the corresponding cell wells using an HPD300 automated dispenser according to the designed layout. The plates were incubated in a 37°C, 5% CO2 incubator for 72 hours. CellTiter-Glo Buffer was thawed at room temperature. The lyophilized CellTiter-Glo substrate was equilibrated to room temperature. The CellTiter-Glo Buffer was added to the CellTiter-Glo substrate and thoroughly mixed. The cell plates were removed and equilibrated to room temperature, and 50 µL of the mixed CellTiter-Glo reagent was added to each well. The plates were protected from light and shaken for 10 minutes, followed by incubation for 10 minutes. The plates were placed in an Enspire reader (luminescence measurement time: 0.5 s) to record luminescence results. The inhibition rate was calculated using the following formula: Inhibition rate (%) = (1 - (RLU_compound - RLU_blank) / (RLU_DMSO - RLU_blank)) × 100%. Dose-response curves were plotted using XLFit to calculate IC50 values. A four-parameter model was used: [fit = (A + ((B - A) / (1 + ((C/x) ^ D)))]. The test results for HeLa cells are shown in Table 1. Table 1: IC50 values of some test compounds against human cervical cancer HeLa cells
`CCOC(=O)c1cccc2c1c1c(n2C(=O)/C=C/C(=O)OC)C(=O)CCC1` [Compound C15]: the IC50 was no more than 200 nM.
Regarding `C[C@H](O)COC(=O)c1cccc2[nH]c3c(c12)CCCC3=O` [Compound B150], the concentration for half-maximal inhibition (IC50) was no more than 200 nM.
As for `Cc1ccc2[nH]c3c(c2c1)CCCC3=NCCN` [Compound E68], the IC50 is no more than 200 nM.
For `CCOC(=O)c1cccc2c1c1c(n2C(=O)c2ccccc2)C(=O)CCC1` [Compound C04], the IC50 is no more than 200 nM.
In the case of `O=C1CCCc2c1[nH]c1cccc(-c3cn[nH]c3)c21` [Compound B58], the IC50 is no more than 200 nM.
For the compound `CCOCCOCC(=O)n1c2c(c3c(C(=O)OCC)cccc31)CCCC2=O` [Compound C44], the IC50 was no more than 200 nM.
In the case of `Cc1ccc2[nH]c3c(c2c1)CCCC3=NCCNCCO` [Compound E11], the IC50 was no more than 200 nM.
As to `O=C1CCCc2c1[nH]c1cccc(C(=O)OCC3CC3)c21` [Compound B41], the half-inhibitory concentration (IC50) is no more than 200 nM.
The value for `COC(=O)c1cc(F)cc2[nH]c3c(c12)CCCC3=O` [Compound B83] was no more than 200 nM.
For `CC1(COC(=O)c2cccc3[nH]c4c(c23)CCCC4=O)COC1` [Compound B140], the IC50 is no more than 200 nM.
For the compound `COc1ccc2[nH]c3c(c2n1)CCCC3=O` [Compound B09], the IC50 is no more than 200 nM.
The value for `[2H]C([2H])([2H])c1ccc2[nH]c3c(c2c1)CCCC3=O` [Compound B15] was no more than 200 nM; that for `COc1ccc2[nH]c3c(c2n1)CCCC3=NCC(=O)OC(C)(C)C` [Compound E35] was no more than 200 nM.
The value for `Cc1ccc2[nH]c3c(c2c1)CCC/C3=N\[C@@H](Cc1ccccc1)C(=O)OC(C)(C)C` [Compound E38] was no more than 200 nM.
The value for `CC(C)(C)OC(=O)c1cccc2[nH]c3c(c12)CCCC3=O` [Compound B55] was no more than 200 nM.
Consider `O=C1CCCc2c1[nH]c1cccc(C(=O)OC3CCOCC3)c21` [Compound B30], for which the IC50 was no more than 200 nM.
With `CN(C)S(=O)(=O)c1cccc2[nH]c3c(c12)CCCC3=O` [Compound B76] the figure was no more than 200 nM; with `CCOC(=O)c1cccc2c1c1c(n2C(=O)c2ncoc2C)C(=O)CCC1` [Compound C26], no more than 200 nM.
As to `CCOC(=O)c1cccc2c1c1c(n2C(=O)C2(c3ccc4c(c3)OC(F)(F)O4)CC2)C(=O)CCC1` [Compound C36], the IC50 was no more than 200 nM.
With `O=C1CCCc2c1[nH]c1cccc(N3CC[C@H](CO)C3)c21` [Compound B196] the figure was no more than 200 nM; with `COC(=O)c1cccc2[nH]c3c(c12)CCCC3=NC1CCN(C)CC1` [Compound E62], no more than 200 nM; with `Cc1nc(-c2cccc3[nH]c4c(c23)CCCC4=O)no1` [Compound B99], no more than 200 nM.
The value for `O=C1CCCc2c1[nH]c1cccc(C(=O)Oc3ccccc3)c21` [Compound B39] was no more than 500 nM; that for `COC(=O)c1cccc2[nH]c3c(c12)CCCC3=NCC(C)(C)O` [Compound E61] was no more than 200 nM; that for `Cc1ccc2[nH]c3c(c2c1)CCCC3=NC(CO)C(C)C` (racemic) [Compound E02] was no more than 500 nM.
With `NC(=O)COC(=O)c1cccc2[nH]c3c(c12)CCCC3=O` [Compound B148] the figure was no more than 200 nM.
In the case of `CCCCCC(=O)n1c2c(c3c(-c4cnn(C(C)C)c4)cccc31)CCCC2=O` [Compound C52], the IC50 is no more than 200 nM.
With `N#CC1(COC(=O)c2cccc3[nH]c4c(c23)CCCC4=O)CC1` [Compound B175] the figure was no more than 500 nM; with `Cc1nn(C)cc1-c1cccc2[nH]c3c(c12)CCCC3=O` [Compound B180], no more than 500 nM; with `CCOC(=O)c1cccc2c1c1c(n2C(=O)C2(F)CCOCC2)C(=O)CCC1` [Compound C49], no more than 200 nM.
Regarding `Cc1ccc2[nH]c3c(c2c1)CCCC3=N[C@@H]1CCNC1` [Compound E04R], the IC50 was no more than 200 nM.
In the case of `CC(O)CCC(C)OC(=O)c1cccc2[nH]c3c(c12)CCCC3=O` (stereo not drawn) [Compound B141], the IC50 was no more than 200 nM.
On to `C#CC(C)OC(=O)c1cccc2[nH]c3c(c12)CCCC3=O` (racemic) [Compound B36], for which the IC50 is no more than 200 nM.
The value for `COC(=O)c1c(Cl)ccc2[nH]c3c(c12)CCCC3=O` [Compound B89] was no more than 200 nM; that for `C#Cc1cccc(C(=O)n2c3c(c4c(C(=O)OCC)cccc42)CCCC3=O)c1` [Compound C22] was no more than 200 nM; that for `Cc1ccc2[nH]c3c(c2c1)CCCC3=NCCOCCO` [Compound E31] was no more than 200 nM.
Consider `CCOC(=O)c1cccc2[nH]c3c(c12)CCC(NCCO)C3=O` (racemic) [Compound B131], for which the IC50 is no more than 500 nM.
With `COC(=O)c1c(C)ccc2[nH]c3c(c12)CCCC3=O` [Compound B87], the IC50 is no more than 200 nM.
As for `COC(=O)c1cccc2[nH]c3c(c12)CCCC3=NCC(O)CO` (racemic) [Compound E59], the IC50 was no more than 200 nM.
In the case of `COc1ccc2[nH]c3c(c2n1)CCCC3=NCCO` [Compound E37], the IC50 was no more than 200 nM.
With `Cc1ccc2[nH]c3c(c2c1)CCCC3=NCC(C)(C)O` [Compound E03] the figure was no more than 500 nM; with `O=C1CCCc2c1[nH]c1cccc(C(=O)OC3CC(O)C3)c21` (stereo not drawn) [Compound B129], no more than 200 nM.
Consider `CCC(=O)Oc1cccc2[nH]c3c(c12)CCCC3=O` [Compound B32], for which the IC50 is no more than 500 nM.
As for `Cc1ccc2[nH]c3c(c2c1)CCCC3=NC1CCN(C)CC1` [Compound E13], the IC50 was no more than 200 nM.
Regarding `Cc1ccc2[nH]c3c(c2c1)CCCC3=NC1CCN(CC(F)(F)F)CC1C` (stereo not drawn) [Compound E65], the IC50 was no more than 200 nM.
With `CCOC(=O)c1cccc2c1c1c(n2C(=O)/C=C/c2ccc(O)c(OC)c2)C(=O)CCC1` [Compound C29] the figure was no more than 200 nM; with `C#CC1(C(=O)Oc2cccc3[nH]c4c(c23)CCCC4=O)CC1` [Compound B121], no more than 500 nM; with `CCOC(=O)c1cccc2c1c1c(n2C(=O)CCCN(C)C)C(=O)CCC1` [Compound C50], no more than 200 nM.
The value for `Cc1ccc2[nH]c3c(c2c1)CCCC3=NCCNC(=O)OC(C)(C)C` [Compound E67] was no more than 200 nM; that for `CCOC(=O)c1cccc2c1c1c(n2C(=O)C2COC2)C(=O)CCC1` [Compound C38] was no more than 200 nM.
With `CCCCCOC(=O)n1c2c(c3c(C(=O)OCC)cccc31)CCCC2=O` [Compound C16] the figure was no more than 200 nM; with `O=C1CCCc2c1[nH]c1cccc(C(=O)Oc3cn[nH]c3)c21` [Compound B160], no more than 200 nM.
Turning to `C#Cc1cccc2[nH]c3c(c12)CCCC3=O` [Compound B68], the IC50 was no more than 200 nM.
With `NS(=O)(=O)c1cccc2[nH]c3c(c12)CCCC3=O` [Compound B75] the figure was no more than 500 nM.
